Results on 2 molecules are retold here after patent US20200157135A1, “SIDE-CHAIN MODIFIED ERGOSTEROL AND STIGMASTEROL DERIVATIVES AS LIVER X RECEPTOR MODULATORS” (Ospedale San Raffaele srl, priority 2017, published 2020).

In one test the test system is hFXR. Nature of the test: luciferase assay GAL4-hFXR in human embryonic kidney 293 cells. The format is cell-based. Particulars: compounds at 10 μM. The method, then:
Human embryonic kidney 293 cells were co-transfected with GAL4-hRXR (A), GAL4-hPPARγ (B), GAL4-hPXR (C) and GAL4-hFXR (D) expression plasmids together with GAL4 responsive element pMHC100X4-TK-luc and Renilla plasmids. Cells were incubated with vehicle (DMSO), PFMs at the concentration of 10 μM, and the nuclear receptor specific ligands 9cis retinoic acid (100 nM) (A), Rosiglitazone (RSG 100 nM) (B), T0901317 (100 nM) (C) and GW4064 (100 nM) (D) for six hours. The values represent mean±S.D. RLA, relative luciferase activity.
The selectivity of our compounds within the nuclear receptor superfamily was also evaluated by luciferase assays using GAL4-RXR, -PPARγ, -PXR and -FXR plasmids.
Cell Culture and Co-transfection Assays. Human embryonic Kidney 293 cells (American Type Culture Collection) were cultured in Dulbecco's Modified Eagle's medium containing 10% of fetal bovine serum at 37° C. in humidified atmosphere of 5% CO2. […] Luciferase activities were analyzed by luciferase Dual Reporter Assay Systems (Promega) according to the manufacturer's protocol. […]

The subject of a further test is ABCA1. Nature of the test: qPCR of ABCA1 expression in PMA-differentiated U937 cells. The test is classed as cell-based, human. As to conditions: U937 differentiated with PMA 72 h; 10 μM, 6 hours. As to the method:
(§1) U937 cells differentiated with PMA for 72 hours were treated with T0901317 (10 μM), 22R—HC (3) or with the tested compound (10 μM). […] (n=3/group). *p<0.05, **p<0.01, ***p<0.001.
(§2) LXR agonists induce the expression of target genes, which are involved in cholesterol homeostasis, particularly in the reverse cholesterol transport pathway.43 Indeed, LXR agonists induce the expression of ABCA1 both in macrophages and in many tissues of the periphery such as the intestine.44 Moreover, ABCA1 regulates cholesterol efflux to APOAI acceptors.45 In the liver, LXR activation promotes the biosynthesis of fatty acids, a process also termed as de novo lipogenesis by inducing the expression of the master regulator of hepatic lipogenesis sterol-regulatory element-binding protein 1C (SREBP-1c), as well as several downstream genes in the SREBP-1c pathway, including steroyl CoA desaturase 1 (SCD1) and fatty acid synthase (FASN).43 Therefore, it was investigated, by quantitative PCR (qPCR), the expression of ABCA1, SREBP1c, FASN, and SCD1, by using RNA from monocytic U937 cells (FIG. 3) and from hepatic HepG2 cells (FIG. 4) stimulated with our compounds, the non-steroidal agonist T0901317 or the endogenous ligand 22R—HC (3) as positive controls. […] Then, the induction of genes involved in the lipogenesis using the hepatic cell line HepG2. 43,22 was evaluated. […] Over the time, indeed, substantial efforts have been dedicated to the identification of LXR ligands able to turning on ABC transporter genes, without affecting lipogenic genes levels. This task is still one of the major challenge to the discovery of a clinically useful LXR modulator for atherosclerosis.
(§3) Quantitative Real-Time-PCR. U937 cell line was differentiated in foam macrophages with phorbol 12-myristate 13-acetate (PMA) 10 ng/ml (Sigma) for 72 hours at 37° C. in […] at the concentration of 3×10^6 cells in 10 ml RPMI 10% FBS. At day 3 nuclear receptor ligands were added for 6 hours. HepG2 cells were treated with the ligands as described by Quinet et al.22 Total RNA was purified by TRIZOL (Invitrogen, Carlsbad, Calif., USA). Reverse transcription was performed incubating 2 μg of total RNA 1 hour at 42° C. with MLV-reverse transcriptase (Promega). Quantitative PCR was performed using Sybr Green Master Mix (Applied Biosystems) and real-time PCR (Viia 7 Real Time PCR System, Applied Biosystems). All PCR reactions were done in triplicate. The comparative Ct method was used to quantify transcripts that were normalized for human GAPDH. the following primer pairs were used: […]
Background: Quantitative PCR measures a nucleic acid by following its amplification.

For another test, the system named is SREBP1c. Nature of the test: qPCR of SREBP1c expression in PMA-differentiated U937 cells. The format is cell-based, human. Particulars: U937 differentiated with PMA 72 h; 10 μM, 6 hours. The method, then:
as §1, §2, §3

Another test deals with SCD1. Description: qPCR of SCD1 expression in PMA-differentiated U937 cells. The format is cell-based, human. As to conditions: U937 differentiated with PMA 72 h; 10 μM, 6 hours. The method, then:
as §1, §2, §3

The target in a further test is T1, hLXRα (Homo sapiens, UniProt Q13133).
T1 sequence (Q13133 209-447 limits assumed): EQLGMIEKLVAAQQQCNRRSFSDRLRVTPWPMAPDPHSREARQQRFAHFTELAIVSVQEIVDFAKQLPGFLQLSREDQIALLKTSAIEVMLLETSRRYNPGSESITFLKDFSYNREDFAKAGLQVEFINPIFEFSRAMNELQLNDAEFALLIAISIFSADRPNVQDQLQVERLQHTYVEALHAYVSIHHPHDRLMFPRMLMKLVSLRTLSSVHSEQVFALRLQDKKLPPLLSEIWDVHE
Nature of the test: luciferase assay with GAL-4 chimeric hLXRα receptor in human embryonic kidney 293 cells. The test is classed as cell-based. As to the method: (§4) All the synthesized compounds were first tested for their ability to activate LXRs by using luciferase assays with GAL-4 chimeric receptors. These were performed by co-transfecting plasmids encoding hLXRα- and β-binding domains fused to GAL-4, with the respective responsive element conjugated with the luciferase reporter gene into the human embryonic kidney 293 cells.
(§5) Cell Culture and Co-transfection Assays. Human embryonic Kidney 293 cells (American Type Culture Collection) were cultured in Dulbecco's Modified Eagle's medium containing 10% of fetal bovine serum at 37° C. in humidified atmosphere of 5% CO2. HEK293 cells (4×10^4 cells per well) were transiently transfected in 48 well plate with the reporter plasmids pMH100X4-TK-luc (100 ng/well), Renilla (22 ng/well) together with 100 ng/well of pCMX-Gal4-RXR, pCMX-Gal4-PPAR-γ, pCMX-Gal4-PXR, pFA-CMV-FXR pCMX-Gal4-LXR-α or pCMX-Gal4-LXR-β plasmids using X-tremeGENE 9 DNA Transfection Reagent (Roche). Six hours after transfection, the cells were treated with the appropriate compound for 24 hours. Luciferase activities were analyzed by luciferase Dual Reporter Assay Systems (Promega) according to the manufacturer's protocol. GAL4-LXRs, GAL4-PPAR-γ, GAL4-RXR and TK-MHC100-luc plasmids were described in Villablanca et al.49 GAL4-PXR was a kind gift of Dr. Enrique Sainz (The Scripps Research Institute, La Jolla, USA). GAL4-FXR was a kind gift of Dr. Daniel Merk (Goethe-University Frankfurt am Main). The results obtained by luciferase assays and reported in Table 1 are from three to five independent experiments.
(§6) Statistical analysis. Data are expressed as mean±SEM and were analyzed for significance by ANOVA with Dunnet's multiple comparison tests. The analysis was performed with Prism software. Data in Table 1 are expressed as EC50±SD. In particular, the standard deviations were obtained by calculating the mean of the EC50 of each experiment (three to five independent experiments). The efficacy (%) of the compounds was calculated as the percentage of the compound effect, in terms of LXRα or β activation, versus 8 μM of 22R—HC±SD. The analyses were performed with Prism software.

Another test addresses T2, hLXRβ (Homo sapiens, UniProt P55055).
T2 sequence (P55055 222-460 limits assumed): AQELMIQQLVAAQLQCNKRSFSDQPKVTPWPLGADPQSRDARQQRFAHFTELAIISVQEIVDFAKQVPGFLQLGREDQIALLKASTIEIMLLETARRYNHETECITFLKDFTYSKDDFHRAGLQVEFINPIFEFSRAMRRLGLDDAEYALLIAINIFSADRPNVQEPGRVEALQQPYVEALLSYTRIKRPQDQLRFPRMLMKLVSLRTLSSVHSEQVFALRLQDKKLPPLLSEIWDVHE
Description: luciferase assay with GAL-4 chimeric hLXRβ receptor in human embryonic kidney 293 cells. The format is cell-based. As to the method:
as §4, §5, §6

In the next test the test system is FASN. Nature of the test: qPCR of FASN expression in PMA-differentiated U937 cells. As to conditions: U937 differentiated with PMA 72 h; 10 μM, 6 hours. The format is cell-based, human. As to the method:
as §1
LXR agonists induce the expression of target genes, which are involved in cholesterol homeostasis, particularly in the reverse cholesterol transport pathway.43 Indeed, LXR agonists induce the expression of ABCA1 both in macrophages and in many tissues of the periphery such as the intestine.44 Moreover, ABCA1 regulates cholesterol efflux to APOAI acceptors.45 In the liver, LXR activation promotes the biosynthesis of fatty acids, a process also termed as de novo lipogenesis by inducing the expression of the master regulator of hepatic lipogenesis sterol-regulatory element-binding protein 1C (SREBP-1c), as well as several downstream genes in the SREBP-1c pathway, including steroyl CoA desaturase 1 (SCD1) and fatty acid synthase (FASN).43 Therefore, it was investigated, by quantitative PCR (qPCR), the expression of ABCA1, SREBP1c, FASN, and SCD1, by using RNA from monocytic U937 cells (FIG. 3) and from hepatic HepG2 cells (FIG. 4) stimulated with our compounds, the non-steroidal agonist T0901317 or the endogenous ligand 22R—HC (3) as positive controls. […] Then, the induction of genes involved in the lipogenesis using the hepatic cell line HepG2. 43,22 was evaluated. […]
Quantitative Real-Time-PCR. […]

As to `CC[C@H](C[C@@H](O)[C@@H](C)[C@H]1CC[C@H]2[C@@H]3CC=C4C[C@@H](O)CC[C@]4(C)[C@H]3CC[C@]12C)C(C)C` [Compound 20, (22R)-3β-stigmast-5-ene-3,22-diol], the FXR activation entry in the test on hFXR is given as “strong FXR activation”. In the test with ABCA1, the ABCA1 expression entry was “strong induction of ABCA1 expression”. For the same molecule, the SREBP-1c up-regulation entry in the test on SREBP1c is “poor activators of SREBP1c and SCD1”. For the same molecule, the “SCD1 expression” value with SCD1 is “poor activators of SREBP1c and SCD1”.
As usually defined, the EC50 is the concentration needed to bring the measured effect to its halfway point. On to `CC(C)CC[C@@H](O)[C@@H](C)[C@H]1CC[C@H]2[C@@H]3CC=C4C[C@@H](O)CC[C@]4(C)[C@H]3CC[C@]12C` [22R-HC (3), 22(R)-hydroxycholesterol, reference compound], for which the EC50 at hLXRα (GAL4-hLXRα luciferase, HEK293, dose-response 32-1 μM, mean of three-five independent experiments, read-out: LXRα EC50 (μM) ± SD) was 6.71 ± 0.71 µM; on hLXRβ (GAL4-hLXRβ luciferase, HEK293, dose-response 32-1 μM, mean of three-five independent experiments, read-out: LXRβ EC50 (μM) ± SD) it was 4.75 ± 0.12 µM. Moreover, the Emax on hLXRα (HEK293, 24 h, read-out: LXRα Efficacy (%) ± SD) was determined as 100%; at hLXRβ (HEK293, 24 h, read-out: LXRβ Efficacy (%) ± SD, % of compound effect versus 8 μM of 22R-HC), 100%. Besides, in the test on FASN, the “FASN mRNA levels” value was “did not induce up-regulation of FASN and SCD1 transcripts”. In addition, the “SCD1 expression” value in the test with SCD1 is “did not induce up-regulation of FASN and SCD1 transcripts”.
